From patent publication US12251381B2, “Aripiprazole dosing strategy” (Alkermes Pharma Ireland Limited, priority 2018, dated 2025)

Assay: Phase 1 study: injection-site evaluation (injection-site reactions)
Type: in vivo, human
Conditions: for patients who experienced ISRs / patients with injection-site pain: associated with the named injection; for Injection-site discomfort / Injection-site erythema / Injection-site induration / Injection-site pain / Injection-site swelling / Patients with at least one ISR: reactions associated with the named injection on day 1
Protocol: The duration of the study was approximately 6 months and consisted of screening, inpatient dosing, outpatient, and follow-up period (FIG. 1). […] A total of 160 patients were planned to be enrolled and randomized 1:1:1:1 to one of four treatment groups, as follows: 1-day initiation regimen groups (30 mg oral aripiprazole plus ALNCD, plus either AL 441 or 882 mg [on day 1] then 20 days of oral placebo), or 21-day initiation regimen groups (15 mg oral aripiprazole plus placebo IM, plus either AL 441 or 882 mg [on day 1] followed by 20 days of oral aripiprazole 15 mg/day). […] ALNCD or placebo were administered as IM injections in the gluteal muscle. For the AL doses, a single 441 mg dose was given in the deltoid muscle or a single 882 mg dose in the gluteal muscle contralateral to the ALNCD (or placebo) injection. All safety analyses were performed using observed data from the safety population, and measurements included adverse events (AEs), vital signs measurements, weight, laboratory test results, ECG findings, Columbia-Suicide Severity Rating Scale (C-SSRS) responses, movement disorder measures, CGI-S responses, and injection-site evaluation. AEs were assessed daily on days 1-15, every other day from days 17-25, on days 28 and 31, once-weekly from days 35 to 85, and on days 113 and 141. Injection-site evaluations were carried out daily on days 1-15, every other day from days 17-25, and on day 28. The injection site and surrounding area were evaluated with each injection (separately for the ALNCD or placebo injection site and AL site). Any observed injection-site reactions were followed until resolution.

CCCCCCCCCCCC(=O)OCN1C(=O)CCc2ccc(OCCCCN3CCN(c4cccc(Cl)c4Cl)CC3)cc21 [AL, (7-(4-(4-(2,3-dichlorophenyl)piperazin-1-yl)butoxy)-2-oxo-3,4-dihydroquinolin-1(2H)-yl)methyl dodecanoate]
severity of Injection-Site Reactions (ISRs) (all ISRs associated with the injection): mild-to-moderate | patients who experienced ISRs (listed as AL 441 mg): 22.8% | patients with injection-site pain (listed as AL 441 mg): 20.3% | patients who experienced ISRs (listed as AL 882 mg): 18.3% | patients with injection-site pain (listed as AL 882 mg): 18.3% | Injection-site discomfort (listed as AL 441 mg): 1 (1.3) n (%) | Injection-site erythema (listed as AL 441 mg): 1 (1.3) n (%) | Injection-site induration (listed as AL 441 mg): 4 (5.1) n (%) | Injection-site pain (listed as AL 441 mg): 16 (20.3) n (%) | Injection-site swelling (listed as AL 441 mg): 2 (2.5) n (%) | Patients with at least one ISR (listed as AL 441 mg): 18 (22.8) n (%) | Injection-site discomfort (listed as AL 882 mg): 0 n (%) | Injection-site erythema (listed as AL 882 mg): 0 n (%) | Injection-site induration (listed as AL 882 mg): 2 (2.4) n (%) | Injection-site pain (listed as AL 882 mg): 15 (18.3) n (%) | Injection-site swelling (listed as AL 882 mg): 1 (1.2) n (%) | Patients with at least one ISR (listed as AL 882 mg): 15 (18.3) n (%)
